From patent publication US11878965B2, “Inhibitors of peptidylarginine deiminases” (Gilead Sciences, Inc., priority 2020, dated 2024)

Biological target: human PAD4 (Homo sapiens (Human), UniProt Q9UM07)
Test: In Vitro PAD4 BAEE Biochemical Assay
Conditions: human PAD4, BAEE substrate; 5 nM PAD4, 2 mM calcium chloride, 3 mM BAEE; geometric mean of multiple experiments
Outline: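 Recombinant human PAD4 (His-SUMO tag removed, E. coli-expressed), 5 nM, preincubated with compound and 2 mM CaCl2 30 min at 25 °C in MOPS pH 7.6 with DTT; 3 mM BAEE added for 2 h at 25 °C, EDTA stop. Released ammonia detected by o-phthalaldehyde/DTT fluorescence (ex 405, em 535 nm).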

Chain of human PAD4 (Q9UM07 2-663): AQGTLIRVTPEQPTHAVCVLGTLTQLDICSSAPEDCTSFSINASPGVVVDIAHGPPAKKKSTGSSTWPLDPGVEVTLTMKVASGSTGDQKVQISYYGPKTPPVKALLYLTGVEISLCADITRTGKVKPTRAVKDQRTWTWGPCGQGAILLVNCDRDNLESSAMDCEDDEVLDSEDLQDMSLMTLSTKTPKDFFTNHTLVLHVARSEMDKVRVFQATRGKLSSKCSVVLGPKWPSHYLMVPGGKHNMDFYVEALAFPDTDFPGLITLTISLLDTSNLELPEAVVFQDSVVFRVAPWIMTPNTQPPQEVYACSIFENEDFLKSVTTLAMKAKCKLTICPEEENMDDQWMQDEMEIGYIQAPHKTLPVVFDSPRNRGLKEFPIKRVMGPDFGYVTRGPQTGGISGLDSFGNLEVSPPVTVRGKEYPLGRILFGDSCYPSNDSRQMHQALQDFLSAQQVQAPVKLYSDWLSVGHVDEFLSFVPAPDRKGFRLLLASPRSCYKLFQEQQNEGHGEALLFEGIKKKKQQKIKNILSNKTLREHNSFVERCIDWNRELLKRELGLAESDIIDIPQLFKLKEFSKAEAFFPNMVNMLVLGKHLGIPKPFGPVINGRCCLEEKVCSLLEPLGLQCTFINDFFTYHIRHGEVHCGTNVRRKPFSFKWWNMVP

Row | IC50 [nM] | SMILES
1 | 5760 | COC(=O)Nc1ccc2cc(-c3nc4cc(C(=O)N5CCC[C@@H](N)C5)cc(OC)c4n3C)n(CC3CC3)c2n1 [Example 108, (R)-methyl (2-(5-(3-aminopiperidine-1-carbonyl)-7-methoxy-1-methyl-1H-benzo[d]imidazol-2-yl)-1-(cyclopropylmethyl)-1H-pyrrolo[2,3-b]pyridin-6-yl)carbamate]
2 | 401 | COC(=O)N(C)c1ccc2cc(-c3nc4cc(C(=O)N5CCC[C@@H](N)C5)cc(OC)c4n3C)n(CC3CC3)c2n1 [Example 109, (R)-methyl (2-(5-(3-aminopiperidine-1-carbonyl)-7-methoxy-1-methyl-1H-benzo[d]imidazol-2-yl)-1-(cyclopropylmethyl)-1H-pyrrolo[2,3-b]pyridin-6-yl) (methyl)carbamate]
3 | 509 | COC(=O)N(c1ccc2cc(-c3nc4cc(C(=O)N5CCC[C@@H](N)C5)cc(OC)c4n3C)n(CC3CC3)c2n1)C1CCC1 [Example 110, (R)-methyl (2-(5-(3-aminopiperidine-1-carbonyl)-7-methoxy-1-methyl-1H-benzo[d]imidazol-2-yl)-1-(cyclopropylmethyl)-1H-pyrrolo[2,3-b]pyridin-6-yl) (cyclobutyl)carbamate]
4 | 234 | CCN(C(=O)OC)c1ccc2cc(-c3nc4cc(C(=O)N5CCC[C@@H](N)C5)cc(OC)c4n3C)n(CC3CC3)c2n1 [Example 111, (R)-methyl (2-(5-(3-aminopiperidine-1-carbonyl)-7-methoxy-1-methyl-1H-benzo[b]imidazol-2-yl)-1-(cyclopropylmethyl)-1H-pyrrolo [2,3-b]pyridin-6-yl) (ethyl)carbamate]
5 | 5150 | CCN(C(=O)OC)c1ccc2cc(-c3nc4cc(C(=O)N5CCC[C@@H](N)C5)ccc4n3C3CC3)n(CC3CC3)c2n1 [Example 112, (R)-methyl (2-(5-(3-aminopiperidine-1-carbonyl)-1-cyclopropyl-1H-benzo[d]imidazol-2-yl)-1-(cyclopropylmethyl)-1H-pyrrolo [2,3-b]pyridin-6-yl) (ethyl)carbamate]
6 | 196 | CCN(C(=O)OC)c1ccc2cc(-c3nc4cc(C(=O)N5CCC[C@@H](N)C5)ccc4n3C3CC3)n(CC3CC3)c2n1 [Example 113, (R)-methyl (2-(5-(3-aminopiperidine-1-carbonyl)-1-cyclopropyl-1H-benzo[d]imidazol-2-yl)-1-(cyclopropylmethyl)-1H-pyrrolo[2,3-b]pyridin-6-yl)(ethyl)carbamate]
7 | 379 | CCN(C(C)=O)c1ccc2cc(-c3nc4cc(C(=O)N5CCC[C@@H](N)C5)cc(OC)c4n3C)n(CC3CC3)c2n1 [Example 115, (R)-N-(2-(5-(3-aminopiperidine-1-carbonyl)-7-methoxy-1-methyl-1H-benzo[d]imidazol-2-yl)-1-(cyclopropylmethyl)-1H-pyrrolo [2,3-b]pyridin-6-yl)-N-ethylacetamide]
8 | 496 | CNC(=O)N(C)c1ccc2cc(-c3nc4cc(C(=O)N5CCC[C@@H](N)C5)cc(OC)c4n3C)n(CC3CC3)c2n1 [Example 116, (R)-1-(2-(5-(3-aminopiperidine-1-carbonyl)-7-methoxy-1-methyl-1H-benzo[d]imidazol-2-yl)-1-(cyclopropylmethyl)-1H-pyrrolo[2,3-b]pyridin-6-yl)-1,3-dimethylurea]
9 | 1120 | COc1cc(C(=O)N2CCC[C@@H](N)C2)cc2nc(-c3cc4ccc(N(C)C(=O)N(C)C)nc4n3CC3CC3)n(C)c12 [Example 117, (R)-1-(2-(5-(3-aminopiperidine-1-carbonyl)-7-methoxy-1-methyl-1H-benzo[d]imidazol-2-yl)-1-(cyclopropylmethyl)-1H-pyrrolo[2,3-b]pyridin-6-yl)-1,3,3-trimethylurea]
10 | 78.4 | COc1cc(C(=O)N2CCC[C@@H](N)C2)cc2nc(-c3cc4ccc([C@@H](C)NC(=O)C(C)(C)C)nc4n3CC3CC3)n(C)c12 [Example 119, N-((R)-1-(2-(5-((R)-3-aminopiperidine-1-carbonyl)-7-methoxy-1-methyl-1H-benzo[d]imidazol-2-yl)-1-(cyclopropylmethyl)-1H-pyrrolo[2,3-b]pyridin-6-yl)ethyl)pivalamide]

Second part, the molecule before the results:

Row | SMILES | IC50 [nM]
11 | C[C@H]1CCCS(=O)(=O)N1c1ccc2cc(-c3nc4cc(C(=O)N5[C@H]6CC[C@@H]5[C@H](N)C6)ccc4n3C3CC3)n(CC3CC3)c2n1 [Example 98, ((1R,2R,4S)-2-amino-7-azabicyclo[2.2.1]heptan-7-yl) (1-cyclopropyl-2-(1-(cyclopropylmethyl)-6-((S)-3-methyl-1,1-dioxido-1,2-thiazinan-2-yl)-1H-pyrrolo[2,3-b]pyridin-2-yl)-1H-benzo[d]imidazol-5-yl)methanone] | 18.9
12 | C[C@H]1CCCS(=O)(=O)N1c1ccc2cc(-c3nc4cc(C(=O)N5CCC[C@@H](N)C5)ccc4n3C3CC3)n(CC3CC3)c2n1 [Example 99, ((R)-3-aminopiperidin-1-yl)(1-cyclopropyl-2-(1-(cyclopropylmethyl)-6-((S)-3-methyl-1,1-dioxido-1,2-thiazinan-2-yl)-1H-pyrrolo[2,3-b]pyridin-2-yl)-1H-benzo[d]imidazol-5-yl) methanone] | 28.4
13 | C[C@H]1CCCS(=O)(=O)N1c1ccc2cc(-c3nc4cc(C(=O)N5C[C@H]6CC[C@@H]5[C@@H]6N)ccc4n3C3CC3)n(CC3CC3)c2n1 [Example 100, ((1R,4R,7R)-7-amino-2-azabicyclo[2.2.1]heptan-2-yl) (1-cyclopropyl-2-(1-(cyclopropylmethyl)-6-((S)-3-methyl-1,1-dioxido-1,2-thiazinan-2-yl)-1H-pyrrolo[2,3-b]pyridin-2-yl)-1H-benzo[d]imidazol-5-yl)methanone] | 55.5
14 | COc1cc(C(=O)N2CCC[C@@H](N)C2)cc2nc(-c3cc4ccc(N5[C@@H](C)CCCS5(=O)=O)nc4n3CC3CC3)n(C3CC3)c12 [Example 101, ((R)-3-aminopiperidin-1-yl)(1-cyclopropyl-2-(1-(cyclopropylmethyl)-6-((S)-3-methyl-1,1-dioxido-1,2-thiazinan-2-yl)-1H-pyrrolo[2,3-b]pyridin-2-yl)-7-methoxy-1H-benzo[d]imidazol-5-yl)methanone] | 43.4
15 | COc1cc(C(=O)N2[C@H]3CC[C@@H]2[C@H](N)C3)cc2nc(-c3cc4ccc(N5[C@@H](C)CCCS5(=O)=O)nc4n3CC3CC3)n(C3CC3)c12 [Example 102, ((1R,2R,4S)-2-amino-7-azabicyclo[2.2.1]heptan-7-yl)(1-cyclopropyl-2-(1-(cyclopropylmethyl)-6-((S)-3-methyl-1,1-dioxido-1,2-thiazinan-2-yl)-1H-pyrrolo[2,3-b]pyridin-2-yl)-7-methoxy-1H-benzo[d]imidazol-5-yl)methanone] | 42
16 | COc1cc(C(=O)N2[C@H]3CC[C@@H]2[C@H](N)C3)cc2nc(-c3cc4ccc(N5[C@@H](C)CCCS5(=O)=O)nc4n3CC3CC3)n(C)c12 [Example 103, ((1R,2R,4S)-2-amino-7-azabicyclo[2.2.1]heptan-7-yl) (2-(1-(cyclopropylmethyl)-6-((S)-3-methyl-1,1-dioxido-1,2-thiazinan-2-yl)-1H-pyrrolo[2,3-b]pyridin-2-yl)-7-methoxy-1-methyl-1H-benzo[d]imidazol-5-yl) methanone] | 22.3
17 | COc1cc(C(=O)N2C[C@H]3CC[C@@H]2[C@@H]3N)cc2nc(-c3cc4ccc(N5[C@@H](C)CCCS5(=O)=O)nc4n3CC3CC3)n(C)c12 [Example 104, ((1R,4R,7R)-7-amino-2-azabicyclo[2.2.1]heptan-2-yl) (2-(1-(cyclopropylmethyl)-6-((S)-3-methyl-1,1-dioxido-1,2-thiazinan-2-yl)-1H-pyrrolo[2,3-b]pyridin-2-yl)-7-methoxy-1-methyl-1H-benzo[d]imidazol-5-yl) methanone] | 79.3
18 | COc1cc(C(=O)N2CCC[C@@H](N)C2)cc2nc(-c3cc4ccc(N5[C@@H](C)CCCS5(=O)=O)nc4n3CC3CC3)n(C)c12 [Example 105, ((R)-3-aminopiperidin-1-yl)(2-(1-(cyclopropylmethyl)-6-((S)-3-methyl-1,1-dioxido-1,2-thiazinan-2-yl)-1H-pyrrolo[2,3-b]pyridin-2-yl)-7-methoxy-1-methyl-1H-benzo[d]imidazol-5-yl) methanone] | 29.6
19 | COc1cc(C(=O)N2CCC[C@@H](N)C2)cc2nc(-c3cc4ccc(N5CCCN(C)S5(=O)=O)nc4n3CC3CC3)n(C)c12 [Example 106, (R)-(3-aminopiperidin-1-yl)(2-(1-(cyclopropylmethyl)-6-(6-methyl-1,1-dioxido-1,2,6-thiadiazinan-2-yl)-1H-pyrrolo[2,3-b]pyridin-2-yl)-7-methoxy-1-methyl-1H-benzo[d]imidazol-5-yl)methanone] | 434
20 | COc1cc(C(=O)N2CCC[C@@H](N)C2)cc2nc(-c3cc4ccc(N5CCCNS5(=O)=O)nc4n3CC3CC3)n(C)c12 [Example 107, (R)-(3-aminopiperidin-1-yl)(2-(1-(cyclopropylmethyl)-6-(1,1-dioxido-1,2,6-thiadiazinan-2-yl)-1H-pyrrolo[2,3-b]pyridin-2-yl)-7-methoxy-1-methyl-1H-benzo[d]imidazol-5-yl) methanone] | 538
21 | COC(=O)N(C)c1ccc2cc(-c3nc4cc(C(=O)N5[C@H]6CC[C@@H]5[C@H](N)C6)cc(OC)c4n3C)n(CC3CC3)c2c1 [Example 114, methyl (2-(5-((1R,2R,4S)-2-amino-7-azabicyclo[2.2.1]heptane-7-carbonyl)-7-methoxy-1-methyl-1H-benzo[d]imidazol-2-yl)-1-(cyclopropylmethyl)-1H-indol-6-yl)(methyl)carbamate] | 34.5
22 | COc1cc(C(=O)N2[C@H]3CC[C@@H]2[C@H](N)C3)cc2nc(-c3cc4ccc([C@@H](C)NC(C)=O)nc4n3CC3CC3)n(C)c12 [Example 118, N-((R)-1-(2-(5-((1R,2R,4S)-2-amino-7-azabicyclo[2.2.1]heptane-7-carbonyl)-7-methoxy-1-methyl-1H-benzo[d]imidazol-2-yl)-1-(cyclopropylmethyl)-1H-pyrrolo[2,3-b]pyridin-6-yl)ethyl)acetamide] | 45.6
